# Experimental data published in patent publication US20040067507A1, “Liver inflammation predictive genes” (priority 2002, published 2004).
# Where two headings read alike, the source gives them in different places.
# Tested on: Sprague Dawley rats Crl:CD
# Assay type: in vivo, rat
# From the text: In addition to the database described and utilized herein, other toxicology gene expression databases may be generated, and used to identify additional liver toxicity biomarkers, which may also be employed in the practice of the liver inflammation prediction methods of the invention. […] An example of compounds, dose levels, liver toxicity classifications and histopathology scores used in the Examples which follow are provided in Table 1. The compounds and dose levels are abbreviated in the Abbreviation Column. The Inflammation Score relates the histopathology liver inflammation, a score of “2” or higher indicates histopathology of increasing severity.
# Identification of Correlating Genes: For the purpose of identifying candidate predictive genes, the database preferably includes histopathology scores for each animal which has been exposed to one or more agent(s). […] The scores are numerical scores that reflect the occurrence and severity of histopathological changes. These scores can be adjusted to have similar range to gene expression changes. […] Because the scores are numerical, they are suitable for use with a variety of statistical correlation and similarity measures.
# Sprague Dawley rats Crl:CD from Charles River, Raleigh, N.C. were divided into treated rats that receive a specific concentration of the compound (see Table 1) and the control rats that only received the vehicle in which the compound is mixed (e.g., saline).
# At specified timepoints (6 h, 24 h and 72 h) after administration (intraperitoneal route) of the compound, a set number of rats (usually 3 control and 3 treated) were euthanized and tissues collected. Each rat was heavily sedated with an overdose of CO2 by inhalation and a maximum amount of blood drawn. Exsanguination of the rat by this drawing of blood kills the rat. The method of collecting the tissues is very important and ensures preserving the quality of the mRNA in the tissues. The body of the rat was then opened up and prosectors rapidly removed the tissues (including liver) and immediately placed them into liquid nitrogen. […] The organs/tissues were then packaged into well-labeled plastic freezer quality bags and stored at −80 degrees until needed for isolation of the mRNA from a portion of the organ/tissue sample.
# Correlation with Histopathology Scores: Histopathology scores for each animal (assigned on a compound-dose basis as indicated in Table 1) were entered with gene expression data by using the GeneSpring™ ‘Drawn Gene’ function. Correlations between inflammation histopathology scores and gene expression were conducted with the distance measures listed below: […]
# [1] = 250 mg/kg i.p., 72 h, 1=no histopathology, 2 or higher=increasing severity
# [2] = 1000 mg/kg i.p., 72 h, 1=no histopathology, 2 or higher=increasing severity
# [3] = 50 mg/kg i.p., 72 h, 1=no histopathology, 2 or higher=increasing severity
# [4] = 200 mg/kg i.p., 72 h, 1=no histopathology, 2 or higher=increasing severity
# [5] = Sprague Dawley Crl:CD, rat, in vivo
# [6] = 1.3 mg/kg i.p., 72 h, 1=no histopathology, 2 or higher=increasing severity
# [7] = 5 mg/kg i.p., 72 h, 1=no histopathology, 2 or higher=increasing severity
# [8] = Sprague Dawley Crl:CD, rat, in vivo, ip
# [9] = 20 mg/kg i.p., 72 h, 1=no histopathology, 2 or higher=increasing severity
# [10] = 80 mg/kg i.p., 72 h, 1=no histopathology, 2 or higher=increasing severity
# [11] = 38 mg/kg i.p., 72 h, 1=no histopathology, 2 or higher=increasing severity
# [12] = 150 mg/kg i.p., 72 h, 1=no histopathology, 2 or higher=increasing severity
# [13] = 25 mg/kg i.p., 72 h, 1=no histopathology, 2 or higher=increasing severity
# [14] = 100 mg/kg i.p., 72 h, 1=no histopathology, 2 or higher=increasing severity
# [15] = 2 mg/kg i.p., 72 h, 1=no histopathology, 2 or higher=increasing severity
# [16] = 8 mg/kg i.p., 72 h, 1=no histopathology, 2 or higher=increasing severity
compound,measurement,setting,value
NC(=O)NO [hydroxyurea],Liver Inflammation,"250 mg/kg i.p., 72 h",no
same,Liver Necrosis,"250 mg/kg i.p., 72 h",no
same,Inflamm. Score,[1],1
same,Necr. Score,[1],1
same,Liver Inflammation,"1000 mg/kg i.p., 72 h",no
same,Liver Necrosis,"1000 mg/kg i.p., 72 h",no
same,Inflamm. Score,[2],1
same,Necr. Score,[2],1
NNC(=O)c1ccncc1 [isoniazid],Liver Inflammation,"50 mg/kg i.p., 72 h",no
same,Liver Necrosis,"50 mg/kg i.p., 72 h",no
same,Inflamm. Score,[3],1
same,Necr. Score,[3],1
same,Liver Inflammation,"200 mg/kg i.p., 72 h",no
same,Liver Necrosis,"200 mg/kg i.p., 72 h",no
same,Inflamm. Score,[4],1
same,Necr. Score,[4],1
CC(=O)N1CCN(c2ccc(OCC3COC(Cn4ccnc4)(c4ccc(Cl)cc4Cl)O3)cc2)CC1 (centres unmarked) [ketoconazole],Inflamm. Score,[5],1
same,Necr. Score,[5],1
same,Liver Inflammation,"rat, in vivo",no
same,Liver Necrosis,"rat, in vivo",no
CN(Cc1cnc2nc(N)nc(N)c2n1)c1ccc(C(=O)N[C@@H](CCC(=O)O)C(=O)O)cc1 [methotrexate],Liver Inflammation,"1.3 mg/kg i.p., 72 h",no
same,Liver Necrosis,"1.3 mg/kg i.p., 72 h",no
same,Inflamm. Score,[6],1
same,Necr. Score,[6],1
same,Liver Inflammation,"5 mg/kg i.p., 72 h",no
same,Liver Necrosis,"5 mg/kg i.p., 72 h",no
same,Inflamm. Score,[7],1
same,Necr. Score,[7],1
C=CCN1CC[C@]23c4c5ccc(O)c4O[C@H]2C(=O)CC[C@@]3(O)[C@H]1C5 [naloxone],Inflamm. Score,[5],1
same,Necr. Score,[5],1
same,Inflamm. Score,[8],1
same,Necr. Score,[8],1
same,Liver Inflammation,"rat, in vivo",no
same,Liver Necrosis,"rat, in vivo",no
same,Liver Inflammation,"rat, in vivo, ip",no
same,Liver Necrosis,"rat, in vivo, ip",no
CCC1(c2ccccc2)C(=O)NC(=O)NC1=O [phenobarbital],Liver Inflammation,"20 mg/kg i.p., 72 h",no
same,Liver Necrosis,"20 mg/kg i.p., 72 h",no
same,Inflamm. Score,[9],1
same,Necr. Score,[9],1
same,Liver Inflammation,"80 mg/kg i.p., 72 h",no
same,Liver Necrosis,"80 mg/kg i.p., 72 h",no
same,Inflamm. Score,[10],1
same,Necr. Score,[10],1
NNc1ccccc1 [phenylhydrazine],Liver Inflammation,"20 mg/kg i.p., 72 h",no
same,Liver Necrosis,"20 mg/kg i.p., 72 h",no
same,Inflamm. Score,[9],1
same,Necr. Score,[9],1
same,Liver Inflammation,"80 mg/kg i.p., 72 h",no
same,Liver Necrosis,"80 mg/kg i.p., 72 h",no
same,Inflamm. Score,[10],1
same,Necr. Score,[10],1
COc1ccc(C[C@H](N)C(=O)N[C@H]2[C@@H](O)[C@H](n3cnc4c(N(C)C)ncnc43)O[C@@H]2CO)cc1 [puromycin],Liver Inflammation,"38 mg/kg i.p., 72 h",no
same,Liver Necrosis,"38 mg/kg i.p., 72 h",no
same,Inflamm. Score,[11],1
same,Necr. Score,[11],1
same,Liver Inflammation,"150 mg/kg i.p., 72 h",no
same,Liver Necrosis,"150 mg/kg i.p., 72 h",no
same,Inflamm. Score,[12],1
same,Necr. Score,[12],1
C=C[C@H]1C[N@@]2CC[C@H]1C[C@@H]2[C@@H](O)c1ccnc2ccc(OC)cc12 [quinidine],Liver Inflammation,"25 mg/kg i.p., 72 h",no
same,Liver Necrosis,"25 mg/kg i.p., 72 h",no
same,Inflamm. Score,[13],1
same,Necr. Score,[13],1
same,Liver Inflammation,"100 mg/kg i.p., 72 h",no
same,Liver Necrosis,"100 mg/kg i.p., 72 h",no
same,Inflamm. Score,[14],1
same,Necr. Score,[14],1
CN(C)[C@@H]1C(O)=C(C(N)=O)C(=O)[C@@]2(O)C(O)=C3C(=O)c4c(O)cccc4[C@@](C)(O)[C@H]3C[C@@H]12 [tetracycline],Inflamm. Score,[5],1
same,Liver Inflammation,"rat, in vivo",no
Cn1c(=O)c2[nH]cnc2n(C)c1=O [theophylline],Inflamm. Score,[5],1
same,Necr. Score,[5],1
same,Liver Inflammation,"rat, in vivo",no
same,Liver Necrosis,"rat, in vivo",no
gentamicin,Liver Inflammation,"38 mg/kg i.p., 72 h",no
same,Liver Necrosis,"38 mg/kg i.p., 72 h",no
same,Inflamm. Score,[11],1
same,Necr. Score,[11],1
same,Liver Inflammation,"150 mg/kg i.p., 72 h",no
same,Liver Necrosis,"150 mg/kg i.p., 72 h",no
same,Inflamm. Score,[12],1
same,Necr. Score,[12],1
lipopolysaccharide,Liver Inflammation,"2 mg/kg i.p., 72 h",no
same,Liver Necrosis,"2 mg/kg i.p., 72 h",no
same,Inflamm. Score,[15],1
same,Necr. Score,[15],1
same,Liver Inflammation,"8 mg/kg i.p., 72 h",yes
same,Liver Necrosis,"8 mg/kg i.p., 72 h",yes
same,Inflamm. Score,[16],2
same,Necr. Score,[16],6
same,liver necrosis or necrosis with inflammation,high dose,produced liver necrosis or necrosis with inflammation
same,liver necrosis or necrosis with inflammation,low dose,not at the low dose
